One molecule from ChEMBL document CHEMBL1128800, “Diastereoselective synthesis of mixanpril, an orally active dual inhibitor of neutral endopeptidase and angiotensin converting enzyme” (Bioorg Med Chem Lett, 1995) can be followed below.

Assay [1] addresses T1, Angiotensin-converting enzyme (Rattus norvegicus) (UniProt P47820).
T1 sequence (whole entry): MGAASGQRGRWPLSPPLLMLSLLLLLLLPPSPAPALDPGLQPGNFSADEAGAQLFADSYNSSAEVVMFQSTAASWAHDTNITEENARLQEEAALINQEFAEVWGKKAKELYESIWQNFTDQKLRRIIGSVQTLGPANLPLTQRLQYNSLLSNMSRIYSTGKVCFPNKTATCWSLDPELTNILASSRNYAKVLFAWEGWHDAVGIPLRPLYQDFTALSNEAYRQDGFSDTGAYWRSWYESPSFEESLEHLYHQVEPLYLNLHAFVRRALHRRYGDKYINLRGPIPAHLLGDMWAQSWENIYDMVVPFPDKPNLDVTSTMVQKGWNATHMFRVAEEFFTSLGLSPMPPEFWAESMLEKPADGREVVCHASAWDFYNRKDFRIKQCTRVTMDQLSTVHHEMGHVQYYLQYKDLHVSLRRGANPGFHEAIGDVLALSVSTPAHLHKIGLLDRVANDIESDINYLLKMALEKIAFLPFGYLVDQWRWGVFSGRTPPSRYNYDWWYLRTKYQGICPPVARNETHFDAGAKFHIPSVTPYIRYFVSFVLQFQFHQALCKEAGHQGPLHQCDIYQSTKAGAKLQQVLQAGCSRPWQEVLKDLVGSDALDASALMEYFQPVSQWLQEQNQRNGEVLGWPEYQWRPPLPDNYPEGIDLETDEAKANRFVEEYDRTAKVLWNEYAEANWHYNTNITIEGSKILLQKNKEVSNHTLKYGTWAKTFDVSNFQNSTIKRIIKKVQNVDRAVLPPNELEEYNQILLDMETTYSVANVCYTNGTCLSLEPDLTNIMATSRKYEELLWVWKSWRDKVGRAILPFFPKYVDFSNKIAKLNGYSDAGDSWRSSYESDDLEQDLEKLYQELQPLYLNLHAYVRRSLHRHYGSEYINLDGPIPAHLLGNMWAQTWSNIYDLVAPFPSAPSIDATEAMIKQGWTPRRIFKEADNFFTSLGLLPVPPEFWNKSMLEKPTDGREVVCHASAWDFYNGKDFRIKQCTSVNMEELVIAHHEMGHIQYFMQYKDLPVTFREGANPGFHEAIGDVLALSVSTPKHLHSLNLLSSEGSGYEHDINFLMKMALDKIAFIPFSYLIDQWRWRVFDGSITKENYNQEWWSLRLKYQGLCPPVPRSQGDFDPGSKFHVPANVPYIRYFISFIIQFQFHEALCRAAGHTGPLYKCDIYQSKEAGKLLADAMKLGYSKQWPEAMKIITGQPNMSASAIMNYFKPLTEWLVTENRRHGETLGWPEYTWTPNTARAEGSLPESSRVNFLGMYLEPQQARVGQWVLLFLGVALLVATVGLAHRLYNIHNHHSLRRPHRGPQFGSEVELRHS
The experiment in a line: […] inhibitory activity against plasmatic angiotensin converting enzyme (ACE) in anaesthetized rats after oral administration of 150 mg/kg dose. Format: organism-based. The arrangement: dose 150 mg/kg.

In assay [2] the target is T1, Angiotensin-converting enzyme (Rattus norvegicus). Description: […] inhibitory activity against plasmatic angiotensin converting enzyme (ACE) in anaesthetized rats after oral administration of 5 mg/kg dose. The arrangement: dose 5 mg/kg. Format: organism-based.
The target is the same in assay [3]. Description: […] inhibitory activity against plasmatic angiotensin converting enzyme (ACE) in anaesthetized rats after oral administration of 100 mg/kg dose. Format: organism-based. Further details: dose 100 mg/kg.
Assay [4] shares this target. The experiment in a line: Effective dose against plasmatic angiotensin converting enzyme (ACE) in anaesthetized rats. To be noted: Plasma.
Assay [5] addresses T2, Neprilysin (Rattus norvegicus) (UniProt P07861).
T2 sequence (whole entry): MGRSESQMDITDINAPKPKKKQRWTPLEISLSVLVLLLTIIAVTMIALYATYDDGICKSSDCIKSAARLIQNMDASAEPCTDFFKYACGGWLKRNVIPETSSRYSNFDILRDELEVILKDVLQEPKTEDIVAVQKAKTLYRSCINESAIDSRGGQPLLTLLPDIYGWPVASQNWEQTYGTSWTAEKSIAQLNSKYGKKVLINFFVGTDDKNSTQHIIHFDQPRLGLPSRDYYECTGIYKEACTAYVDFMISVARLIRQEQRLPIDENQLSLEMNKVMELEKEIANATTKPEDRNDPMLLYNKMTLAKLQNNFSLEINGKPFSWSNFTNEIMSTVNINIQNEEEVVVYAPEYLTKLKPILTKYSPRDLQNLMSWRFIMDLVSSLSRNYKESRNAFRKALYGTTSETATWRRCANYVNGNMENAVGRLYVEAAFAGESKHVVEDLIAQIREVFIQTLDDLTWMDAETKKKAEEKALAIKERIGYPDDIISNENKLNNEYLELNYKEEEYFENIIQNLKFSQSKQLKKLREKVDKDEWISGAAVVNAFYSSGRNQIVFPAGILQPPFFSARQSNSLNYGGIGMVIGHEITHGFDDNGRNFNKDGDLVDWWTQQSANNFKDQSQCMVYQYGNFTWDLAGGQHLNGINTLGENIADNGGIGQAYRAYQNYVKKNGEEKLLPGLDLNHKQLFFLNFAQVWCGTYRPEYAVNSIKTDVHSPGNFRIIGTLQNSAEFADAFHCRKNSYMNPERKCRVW
Description: Tested for inhibitory activity against neutral endopeptidase at a dose of 2.5 mg/kg in rats; Active. Type of assay: organism-based. Further details: dose 2.5 mg/kg.

Assay [6] deals with T1, Angiotensin-converting enzyme (Rattus norvegicus). The experiment in a line: […] inhibitory activity against plasmatic angiotensin converting enzyme (ACE) in anaesthetized rats after oral administration of 50 mg/kg dose. Format: organism-based. The arrangement: dose 50 mg/kg.
Assay [7] has the same target. Description: […] inhibitory activity against plasmatic angiotensin converting enzyme (ACE) in anaesthetized rats after oral administration of 2.5 mg/kg dose. Type of assay: organism-based. The arrangement: dose 2.5 mg/kg.
For assay [8] the target is unchanged. The experiment in a line: […] inhibitory activity against plasmatic angiotensin converting enzyme (ACE) in anaesthetized rats after oral administration of 25 mg/kg dose. Type of assay: organism-based. The arrangement: dose 25 mg/kg.
Assay [9] shares this target. Description: […] inhibitory activity against plasmatic angiotensin converting enzyme (ACE) in anaesthetized rats after oral administration of 10 mg/kg dose. The arrangement: dose 10 mg/kg. Type of assay: organism-based.

What is called inhibition is the percentage by which the read-out fell short of the control. By ED50 is commonly meant the dose at which the effect has come halfway, by size or by number of responders.

Activity calls are given as the source filed them. The calls are words filed in the database; no cut-off is given here.

In the case of `CC(NC(=O)C(CSC(=O)c1ccccc1)C(C)c1ccccc1)C(=O)O` (centres undefined), the inhibition in assay [1] stood at 82%; in [2], 35%; in assay [3] it was 70%; in [6], 65%; in [7], 25%; in assay [8], 55%. In assay [9], this molecule had an inhibition of 50%. Besides, the ED50 in assay [4] was 12 mg/kg. For the same molecule, in assay [5], the result was Active.
